# Patent US4863874A, “Method for detecting phosphatidylinositol through binding to Concanavalin A” (The United States of America as represented by the …, priority 1986, dated 1989)
# Where two headings read alike, the source gives them in different places.
# Experiments:
# [1] = target: T1, Con A (Canavalia ensiformis, UniProt P02866); test: Binding to Con A by equilibrium dialysis, Scatchard plot
# T1 construct: purchased Sigma Chemical Co., St. Louis, MO
# Text: Equilibrium dialysis (microtechnique), as described by Karush, et al. (Karush, F., Karush, S. S. and Eisen, H. N. (1971) in Methods of Immunology and Immunochemistry (C. A. Williams, and M. W. Chase, Edition), Vol. III, pages 383-394, Academic Press, NY) was used to determine the binding of Con A to α-mannose, α-L-fucose, or myo-inositol. The data were plotted according to the method of Scatchard (Scatchard, G. (1949) Ann. N.Y. Acad. Sci., Vol. 51, pages 660-672).
# The binding of Con A to α-D-[^3 H]-mannose or myo-[^3 H]-inositol in 0.01M bicarbonate-saline, pH 7.0, at room temperature was investigated by equilibrium dialysis. […] The ratio of the molar concentration of the bound sugar to that of protein is represented by r, c is the molar concentration of free sugar, n is the number of binding sites and K, the binding constant. A molecular weight of 108,000 for Con A was used in the calculations since Con A is a tetramer at neutral pH and the monomer mol wt. is 27,000.
# [2] = system: mouse spleen lymphocytes; test: Suppression of Con A-induced lymphocyte mitogenesis ([3H]-thymidine); assay type: cell-based; details: for inhibition of Con A-induced lymphocyte mitogenesis: added simultaneously with Con A, in words; for DPM × 10^-3 ([3H]-thymidine, DNA synthesis): geometric mean of quadruplicate ±1 S E, no inhibitor 124 ± 10; for inhibition at 40000 µM: Mus musculus, Lymphocyte, read-out: % SUPPRESSION
# Text: Mitogenic determination were made on 12 weeks old male C3 HeB/FeJ mouse (Jackson Laboratory, Bar Harbour, ME) spleen cells. The method used for cell preparation and assay of mitogenic activity is described elsewhere (Richardson, E. C., and Alving, C. R. (1984) Rev. Infect. Dis., Vol. 6, pages 532-534). Briefly spleen cells were extracted into HSB (HEM Research Inc., Rockville, MD), purified on a Ficoll-Hypaque solution, washed twice with HBS and suspended in a medium containing Eagles MEM with Earle's salts (GIBCO, Grand Island, NY), penicillin 100 μg/ml and streptomycin 100 μg/ml (GIBCO), 5×10^-5 M 2-mercaptoethanol (Matheson, Coleman and Bell, Norwood, OH) and 5% fetal bovine serum (MBA, Walkersville, MD). Cultures containing 2×10^5 viable cells/0.2 ml were prepared in 96 wells microtiter plates (Linbro Chemical Co., New Haven, CT) containing Con A ([…] Con A protein/ml culture) with either 40 μmoles/ml α-MM or myo-inositol. Cultures were incubated at 37° C. in 5% CO2 and air for 48 hours. Four hours prior to harvesting, the cells were pulsed with 1 μCi of [^3 H]-thymidine, harvested on glass fiber filters with a cell harvester and the radioactivity determined by liquid scintillation.
# Cultures containing 2×10^5 mouse spleen lymphocytes in 0.2 ml medium were stimulated with 6 μg Con A/ml in the presence of 40 μmoles/ml of α-MM or myo-inositol and incubated for 48 hours. DNA synthesis was determined by pulsing the cultures 4 hours prior to harvesting with 1 μCi of [^3 H]-thymidine. The values represent the geometric mean of quadruplicate cultures ±1 S E.
# [3] = target: T1, Con A; test: Inhibition of Con A binding to liposomes
# Experimental: Similar incubations as those described in FIG. 1 were set up with liposomes and Con A. α-MM (FIG. 2a) or myo-inositol (FIG. 2b) were used as inhibitors in the concentrations indicated.
# Liposomes containing PL (DMPC, or DMPC/PI) and cholesterol in molar ratios 2/1.5 were used throughout. When PI was included in the liposomes, it was in a 1/1 molar ratio with DMPC. Preparation of liposomes (multilamellar vesicles) is reported in detail (Alving, C. R., Shichijo, S., and Mattsby-Baltzer, I. (1984) in Liposome Technology, (G. Gregoriadis, edition), Vol. II, pages 157-175, CRC, Boca Raton, FL). Briefly, lipids (PLs and cholesterol) were dried in vacuo in pear-shaped flasks and dispersed in a small volume of 0.15M NaCl with the aid of a few acid washed glass beads. The final PL concentration in the aqueous dispersion was 10 mM.
# (§1) Studies on the binding of Con A to liposomes were performed as follows: Con A and inhibitors (if present) in the concentrations indicated in the individual figures were incubated with 100 μl of liposomes in a final volume of 1.0 ml of buffer for 45 minutes at 25° C. After incubation, liposomes were washed twice with 2 ml portions of 0.9% NaCl-0.01M NaHCO3 (pH 7.0) and collected by centrifugation at 140,000 g for 5 minutes. Bicarbonate-saline was the buffer used throughout for solution, washing and dilutions. Specific protein binding to liposomes was measured by a Lowry assay adapted to measurement of proteins on liposomes as described previously (Alving, C. R., and Kinsky, S. C. (1971) Immunochemistry, Vol. 8, pages 325-343).
# Con A binding to mannose is widely accepted as the major binding specificity for Con A, and inhibition of Con A by α-MM is often used as a criterion for specificity of binding (Lis, H. and Sharon, N. (1973) Ann. Rev. Biochem., Vol. 42, pages 541-574). […] Since Con A binding was increased by the presence of PI in the liposomes we tried to inhibit it by adding increasing concentrations of myo-inositol as a soluble inhibitor. […] Therefore we conclude that the binding of Con A to PI is specific and probably involves the inositol moiety of PI.
# [4] = target: T1, Con A; test: Inhibition of Con A binding to liposomes by mixtures of α-MM and myo-inositol; details: for relative inhibitory potency, PI present in the liposomes: liposomes containing PI; for type of inhibition on simultaneous addition of both inhibitors: simultaneous addition of both inhibitors to Con A and liposomes
# Experimental: Similar incubations as those described in FIG. 1 were set up with liposomes and Con A. Myo-inositol and α-MM were mixed together as inhibitors in the concentrations indicated.
# as §1
# In order to characterize further the binding of Con A to liposomal PLs, and especially to PI, we mixed varying concentrations of α-MM with varrying concentrations of myo-inositol. Our reasoning was that if α-MM and myo-inositol complete for the same binding site we would record similar inhibitions to those shown in FIG. 2. […] The opposite occurred with liposomes lacking PI.
# [5] = 6 μg Con A/ml, 40 μmoles/ml inhibitor, 48 hours
# [6] = myo-inositol and α-MM simultaneously used, FIG. 4
SMILES,"binding to Con A ([1]; 0.01M bicarbonate-saline, pH 7.0, room temperature)",inhibition of Con A-induced lymphocyte mitogenesis [2],"inhibition of Con A binding to liposomes containing PI ([3]; increasing concentrations, liposomes containing PI)","inhibition of Con A binding to liposomes lacking PI ([3]; increasing concentrations, liposomes lacking PI)","DPM × 10^-3 ([3H]-thymidine, DNA synthesis) [2, 5] [DPM × 10^-3]",inhibition at 40000 µM ([2]; 48 h) [%],"relative inhibitory potency, PI present in the liposomes [4, 6]","relative inhibitory potency, PI absent from liposomes ([4]; myo-inositol and α-MM simultaneously used, liposomes lacking PI, FIG. 4)",type of inhibition on simultaneous addition of both inhibitors [4],inhibition at 1000 µM ([3]; read-out: inhibition of Con A binding to DMPC liposomes) [%],inhibition at 1000 µM ([3]; read-out: inhibition of Con A binding to DMPC/PI liposomes) [%],Kd [1] [mM],"inhibition at 40000 µM [2, 5] [%]",IC50 [3] [mM]
C[C@@H]1O[C@@H](O)[C@@H](O)[C@H](O)[C@@H]1O [α-L-fucose],No binding could be detected,No inhibition,no inhibition was observed,no inhibition was observed,,,,,,,,,,
"CO[C@H]1O[C@H](CO)[C@@H](O)[C@H](O)[C@@H]1O [α-MM, α-methyl mannoside]",,more effective inhibitor than myo-inositol,,,1.3 ± 0.2,99,could not provide similar inhibition,a more potent inhibitor than inositol,non-competitive,~50,~50,,,
O[C@H]1[C@H](O)[C@@H](O)[C@H](O)[C@@H](O)[C@H]1O [myo-inositol],,significant inhibition was observed,,,86 ± 8,,the more potent inhibitor,,non-competitive,,,0.769,31,10
